Values joined by “and” are separate entries in the source; they are usually repeats but may differ in a detail not shown here. Equal values may be shown once. Read-outs that look alike come from different tables or passages of the source. Each block holds one compound with its values, some of them ahead of it.
Legend:
PP2A = details: cited from earlier work
apoB mRNA editing [1] = details: for apoB mRNA editing, Mean ± SEM: 6 hours; for apoB mRNA editing (increased from 66%): about 10 times the IC50 for PP1 (cantharidin 4.7 μM)
Method: Protein phosphatase inhibitor studies. […] The compounds' effects on apoB mRNA editing were evaluated by RT-PCR and poisoned-primer extension analysis (Sowden et al. Rna 2:274-88 (1996)). The effect of 470 nM cantharidin on ACF subcellular distribution was investigated by treating primary hepatocyte cultures for 6 hours followed by nuclear and cytoplasmic extract preparation.
It was reasoned that if phosphorylation of ACF regulated editing activity, treatment of rat primary hepatocytes with phosphatase inhibitors might stimulate apoB mRNA editing activity. […] The experiments (n=4-6) were done over a number of months and therefore represent primary hepatocytes from several rats.
Editing activity was quantified from primary hepatocytes incubated with 10-100-times the EC50 of the various […] (Calbiochem).

apoB protein = experiment: intracellular and secreted apoB protein in primary hepatocytes (radioimmunoassay); assay type: cell-based, rat
Method: The effect of Cantharidin on the abundance of intracellular and secreted apoB protein was also evaluated. Primary hepatocyte cultures were treated with Cantharidin at the IC50 of PP1 and 10-times higher (n=5 for each condition). Intracellular apoB protein in hepatocyte cytoplasmic extracts and apoB protein secreted into the media as VLDL was quantified as ng apoB protein per mg total protein in the Sparks' lab by radioimmunoassay using a monoclonal antibody against apoB as described previously (Chirieac et al. (2000), Au et al. (2004), Sparks, J D and Sparks, C E J Biol Chem 265:8854-62 (1990)) (FIG. 13). For these experiments, insulin was withdrawn from control and Cantharidin-treated cultures 24 hours prior to the addition of Cantharidin in order to isolate the effect of PP 1 inhibition in the absence of insulin stimulated kinase activity.
If alterations in ACF phosphorylation are consequently to ApoB metabolism, then intracellular ApoB protein abundance should be responsive to inhibition of PP1. This was evaluated in treated primary hepatocytes by quantifying ApoB protein in hepatocyte cytoplasmic extracts and secreted into the media as VLDL using ApoB radioimmunoassay and expressed as ng ApoB protein per mg total protein (FIG. 13). For these experiments insulin was withdrawn from control and cantharidin-treated cultures 24 hours prior to the addition of cantharidin in order to isolate the effect of PP I inhibition in the absence of insulin stimulated kinase activity. […] This is the same dose response that was reported for maximal phospho-ACF recovery Mehta, A. et al (2002)).

ACF [2] = experiment: ACF phosphorylation in 32P-labeled rat primary hepatocytes (ACF immunoprecipitation, autoradiography); assay type: cell-based
Method: In vivo phosphorylation of ACF. In vivo ^32P labeling was performed by intraperitoneal injection of rats with 12.5 mCi of orthophosphoric acid (10 mCi/ml ^32PO4; NEN, Boston, Mass.) buffered with 50 mM HEPES, pH 7.0 and 150 mM NaCl. After 4 hours, rats were sacrificed and hepatic cytoplasmic and nuclear extracts prepared. Primary hepatocyte cultures in 60 mm dishes were incubated in phosphate-free Minimum Essential Eagle Media (Sigma) containing 0.1 nM porcine insulin for 6 hours and subsequently in fresh media containing 10 nM insulin (equivalent to that seen in post-prandial serum) or 0.45% to 0.9% ethanol (AAPER Alcohol and Chemical Co., Shelbyville, Ky.) (Van Mater et al. (1998), Yang et al. (2000)) plus 2.0 mCi orthophosphoric acid. Cultures were labeled for 4 hours prior to extract preparation.
To evaluate the effect of phosphatase inhibition on ACF phosphorylation, cultures were pre-incubated for 2 hours with 470 nM cantharadin in phosphate-free Waymouth's media and subsequently supplemented with 0.5 mCi ^32pO4 and incubated for an additional 4 hours. Cultures were harvested and subcellular extracts prepared.
Immunological techniques. […] For immunoprecipitation analyses all radiolabeled extracts were adjusted to 5 mM MgCl2 and digested with 100 units of DNase I (Promega), RNase T1 (Roche, Ind.), and RNase A (Sigma) for 1 hour on ice to remove radiolabeled nucleic acid. Where applicable, extracts were incubated overnight with ACF CT antibody at 4° C. and subsequently reacted with Protein A-agarose (Oncogene Research Products, Boston, Mass.) pre-washed with 1×TBS/10 mM NaF. The immuno-absorbed material was washed 3 times with 1×TBS/10 mM NaF, 3 times with 1×TBS/1 M NaCl (Yang et al. (1997)) and lastly 3 times with 1×TBS. Immuno-absorbed material to be treated with alkaline phosphatase was washed with 50 mM Tris, pH 8.4, 1 mM MgCl2, 0.1 mM ZnCl2, 25% glycerol and then incubated with 5 U CIAP for 1 hour at 30° C. and then washed 6 times with 1×TBS. ACF-antibody complexes were eluted with 3 M sodium thiocyanate, acetone precipitated and analyzed by 10.5% SDS-PAGE followed by autoradiography and/or western blotting with ACF NT antibody. For ACF immunoprecipitation from gradient fractions an equal volume of pooled gradient fractions from sedimentation zones of interest were reacted with sub-saturating amounts of ACF CT antibody to ensure that the recovery of phospho-ACF was not simply a reflection of ACF abundance in each zone.
To evaluate this, cytoplasmic and nuclear extracts from radiolabeled primary hepatocyte cultures were sedimented through 10%-50% glycerol gradients. […] The ACF immunoprecipitates were resolved by SDS-PAGE, transferred to nitrocellulose, autoradiographed and subjected to phosphorimager scanning to detect and quantify radiolabeled proteins prior to immunoblotting with the ACF NT antibody.

PP1 = details: cited from earlier work
ACF [3] = test system: ACF
AC = details: cited from earlier work
apoB mRNA editing [4] = experiment: apoB mRNA editing in McArdle cells (ethanol, ACF wild type, mutants and isoforms); assay type: cell-based, rat; details: wild type McArdle cells, ethanol 4 hours
Method: McArdle RH7777 cells (ATCC Manassas, Va.) stably expressing HA epitope-tagged APOBEC-1 (Yang et al. J Biol Chem 272:27700-6 (1997)) were treated for 4 hours with 0.9% ethanol and fractionated into nuclear extracts (Van Mater et al. (1998)).
To calibrate the system cells were incubated in the presence of ethanol for 4 hours and the amount of edited apoB mRNA determined.
The overall expression and subcellular localization of epitope tagged ACF isoforms is established by western blotting of nuclear and cytoplasmic extracts (prepared using NE-PER system; Pierce). These biochemical studies are complemented by immunofluorescence microscopy of paraformaldehyde fixed cells reacted with epitope tag or ACF isoform-specific antibodies. In pilot experiments varying levels of HA-tagged ACF43 and ACF45 were expressed by transfecting differing amounts of cDNA into McArdle or McAPOBEC cells (FIGS. 35A & C, western blots). […] ACF expression levels, subcellular localization and editing activity are determined from replicate experiments and the relative affects of overexpressing each isoform compared in the absence (negative control) or presence of ethanol and to the response seen in wild type cells (positive control).

ACF [5] = experiment: hepatic ACF nuclear retention in lean and ob/ob mice after insulin challenge; assay type: in vivo, mouse; details: 4 h following 1.5 IU insulin/kg BW
Method: The mice are insulin-resistant as evident in elevated blood glucose (180-220 mg/dl after fasting) and lack a significant response to challenge when injected with 1.5 IU of insulin/kg BW. It has been shown that apobec-1 gene expression and apoB mRNA editing is markedly stimulated by insulin (Sowden, M. P. et al. (2002); Funahashi, T. F. et al (1995); Phung, T. L. et al. Metabolism 45, 1056-1058 (1996); von Wronski, M. A. et al. Metabolism 47, 869-73 (1998)). As a further indicator of the insulin-resistant state of these animals, it is apparent that hepatic apoB mRNA editing is not stimulated compared to cogenic lean mice (FIG. 40). The results from three fed animals as lean, ob/ob and 4 h Insulin-treated ob/ob mice are shown. Editing was evaluated using the established poisoned-primer extension assay for quantifying edited apoB mRNA where % editing is calculated from PhosphorImager scans as the counts in the edited band, divided by the sum of the counts in the edited plus unedited bands X 100. The nuclear-cytoplasmic distribution of ACF was next assessed in lean and ob/ob mouse liver without or with insulin challenge (4 h following 1.5 IU insulin/kg BW). […] The fold-nuclear retention of total cellular ACF was calculated from these values and is provided at the bottom of the image.

[6] = 0.5 μM (IC50 of PP1), insulin withdrawn 24 hours before
[7] = activation of cAMP dependent kinases

Compound: C[C@@]12C(=O)OC(=O)[C@]1(C)[C@H]1CC[C@@H]2O1 [Cantharidin]
IC50 (PP2A): 40 nM | IC50 (PP2A; listed as cantharidin): 47 nM | apoB mRNA editing, Mean ± SEM (apoB mRNA editing [1]; 4.7 nM): 62 ± 2% | apoB mRNA editing, Mean ± SEM (apoB mRNA editing [1]; 47 nM): 64 ± 1% | apoB mRNA editing, Mean ± SEM (apoB mRNA editing [1]; 470 nM): 75 ± 1% | effect on apoB mRNA editing (apoB mRNA editing [1]; 470 nM, the IC50 for PP1): reproducible, but not statistically significant increase in editing | apoB mRNA editing, Mean ± SEM (apoB mRNA editing [1]; 4.7 μM): 91 ± 1% | apoB mRNA editing (increased from 66%) (apoB mRNA editing [1]): > 90% | effect on apoB mRNA editing (apoB mRNA editing [1]; concentration not given): stimulated apoB mRNA editing | reduction in intracellular (cell) apoB relative to untreated hepatocytes (apoB protein; [6]): 22% | reduction in secreted (media) apoB relative to untreated hepatocytes (apoB protein; [6]): 17% | reduction in secreted apoB (apoB protein; 5 μM): ≥ 30% | reduction in intracellular apoB (apoB protein; 5 μM (10-times the IC50)): ≥ 60% | ACF phosphorylation (ACF [2]; 470 nM): increased | IC50 (PP1): 473 nM | IC50 (PP1; listed as cantharidin): 470 nM | nuclear ACF (control nuclear to cytoplasmic 1:1) (ACF [3]; 470 nM, 4 hours): five-fold increase in nuclear ACF | nuclear ACF compared to untreated control hepatocytes (ACF [3]; 0.5 μM (IC50 of PP1)): marked increase in nuclear ACF

Compound: CC1(C)C(C=C(Cl)Cl)C1C(=O)OC(C#N)c1cccc(Oc2ccccc2)c1 (stereo not drawn) [Cypermethrin]
apoB mRNA editing, Mean ± SEM (apoB mRNA editing [1]; 50 pM): 69 ± 4% | apoB mRNA editing, Mean ± SEM (apoB mRNA editing [1]; 5 nM): 66 ± 4% | effect on apoB mRNA editing (apoB mRNA editing [1]; concentration not given): did not affect significantly apoB mRNA editing

Compound: O=C(O)[C@@H]1[C@H](C(=O)O)[C@H]2CC[C@@H]1O2 [Endothall]
apoB mRNA editing, Mean ± SEM (apoB mRNA editing [1]; 100 nM): 66 ± 2% | apoB mRNA editing, Mean ± SEM (apoB mRNA editing [1]; 500 nM): 65 ± 2% | apoB mRNA editing, Mean ± SEM (apoB mRNA editing [1]; 5 μM): 64 ± 3% | apoB mRNA editing, Mean ± SEM (apoB mRNA editing [1]; 50 μM): 83 ± 2% | effect on apoB mRNA editing (apoB mRNA editing [1]; 10-times the IC50 for PP1): stimulated editing to statistically significant levels

Compound: C=C[C@@]1(C)CC(=O)[C@]2(O)[C@@]3(C)[C@@H](O)CCC(C)(C)[C@@H]3[C@H](O)[C@H](OC(C)=O)[C@@]2(C)O1 [Forskolin]
apoB mRNA editing, Mean (apoB mRNA editing [1]; 4 μM): 70.6% | apoB mRNA editing, Mean (apoB mRNA editing [1]; 40 μM): 68.5% | apoB mRNA editing, Mean (apoB mRNA editing [1]; 120 μM): 69%

effect on editing in hepatocytes (apoB mRNA editing [1]): stimulated
Compound: O=S(=O)(NCCNC/C=C/c1ccc(Br)cc1)c1cccc2cnccc12 [H89]

Compound: CC(C)NCC(O)c1ccc(O)c(O)c1 (stereo not drawn) [Isoproterenol]
EC50 (AC; [7]): 50000 nM | EC50 (AC; range printed with mixed units): 1 to 100000 nM

effect on editing in hepatocytes (apoB mRNA editing [1]): stimulated
Compound: COc1ccc(S(=O)(=O)N(CCO)c2ccccc2CN(C)C/C=C/c2ccc(Cl)cc2)cc1 [KN93]

effect on editing in hepatocytes (apoB mRNA editing [1]): did not affect editing
Compound: O=S(=O)(c1cccc2c(I)cccc12)N1CCCNCC1 [ML-7]

Compound: C=C1[C@@H](O)[C@@H]2O[C@]3(CC[C@H](/C=C/[C@@H](C)[C@@H]4CC(C)=C[C@@]5(O[C@H](C[C@@](C)(O)C(=O)O)CC[C@H]5O)O4)O3)CC[C@H]2O[C@@H]1[C@@H](O)C[C@H](C)[C@H]1O[C@@]2(CCCCO2)CC[C@H]1C [Okadaic acid]
apoB mRNA editing, Mean ± SEM (apoB mRNA editing [1]; 1 nM): 72 ± 4% | apoB mRNA editing, Mean ± SEM (apoB mRNA editing [1]; 10 nM): 74 ± 4% | apoB mRNA editing, Mean ± SEM (apoB mRNA editing [1]; 100 nM): 91 ± 2% | apoB mRNA editing (increased from 66%) (apoB mRNA editing [1]): greater than 90% | effect on apoB mRNA editing (apoB mRNA editing [1]; concentration not given): stimulated

effect on editing in hepatocytes (apoB mRNA editing [1]): did not affect editing
Compound: COc1cccc(-c2cc(=O)c3ccccc3o2)c1N [PD98059]

Compound: CCCCCCCCCCCCCC(=O)O[C@@H]1[C@@H](C)[C@@]2(O)[C@@H](C=C(CO)C[C@]3(O)C(=O)C(C)=C[C@@H]23)[C@@H]2C(C)(C)[C@]12OC(C)=O [PMA]
apoB mRNA editing, Mean (apoB mRNA editing [1]; 500 nM): 68.8% | apoB mRNA editing, Mean (apoB mRNA editing [1]; 5 μM): 64.9% | apoB mRNA editing, Mean (apoB mRNA editing [1]; 50 μM): 63%

editing in metabolic state of rat hepatocytes (model, basal ~65%) (apoB mRNA editing [1]): ~95%
Compound: CCO [ethanol]
increase in editing activity (apoB mRNA editing [4]): 52% | percent editing (from 21%) (apoB mRNA editing [4]): 32% | increase of phosphoACF in nuclear 27S editosomes (ACF [2]; 0.45% ethanol, 4 hours): 3.5 fold | increase of phosphoserine in immunopurified ACF (ACF [2]; 0.9% ethanol during the labeling period): 1.5 fold

Compound: Glucagon
apoB mRNA editing, Mean (apoB mRNA editing [1]; 1 nM): 62.2% | apoB mRNA editing, Mean (apoB mRNA editing [1]; 10 nM): 59.5% | apoB mRNA editing, Mean (apoB mRNA editing [1]; 100 nM): 58.3% | EC50 (AC; [7]): 0.1 to 100 nM | EC50 (AC; activation of cAMP dependent kinases, listed as glucagon): 50 nM

Compound: insulin: porcine insulin (Sigma)
editing in metabolic state of rat hepatocytes (model, basal ~65%) (apoB mRNA editing [1]): ~80% | increase of phosphorylated ACF in nuclear 27S editosomes (ACF [2]; 10 nM insulin, 4 hours): 2.5 fold and 2 fold | hepatic ACF nuclear retention, fold change (ACF [5]; lean mice): 4 fold | hepatic ACF nuclear retention, fold change (ACF [5]; ob/ob mice): 0.9 fold
